Columns and labels:
[1] = test system: mustard beetle larvae (Phaedon cochleariae); test: Phaedon cochleariae - spray test; assay type: in vivo; settings: 48 h
Experimental: (§1) The expected efficacy of a given combination of two compounds is calculated as follows (see Colby, S. R., “Calculating Synergistic and antagonistic Responses of Herbicide Combinations”, Weeds 15, pp. 20-22, 1967):
(§2) • X is the efficacy expressed in % mortality of the untreated control for test compound A at a concentration of m ppm respectively m g/ha, • Y is the efficacy expressed in % mortality of the untreated control for test compound B at a concentration of n ppm respectively n g/ha, • E is the efficacy expressed in % mortality of the untreated control using the mixture of A and B at m and n ppm respectively m and n g/ha, then is
(§3) If the observed insecticidal efficacy of the combination is higher than the one calculated as “E”, then the combination of the two compounds is more than additive, i.e., there is a synergistic effect.
Solvent: 78.0 parts by weight of acetone
• 1.5 parts by weight of dimethylformamide Emulsifier: 0.5 parts by weight of alkylaryl polyglycolether To produce a suitable preparation of active compound, 1 part by weight of active compound is mixed with the stated amount of solvent and emulsifier, and the concentrate is diluted with emulsifier-containing water to the desired concentration. To produce a suitable preparation of a spore suspension the spores are diluted with emulsifier-containing water to the desired concentration.
Chinese cabbage (Brassica pekinensis) leaf-disks are sprayed with a preparation of the active ingredient of the desired concentration. Once dry, the leaf disks are infested with mustard beetle larvae (Phaedon cochleariae).
After the specified period of time, mortality in % is determined. 100% means all beetle larvae have been killed and 0% means none of the beetle larvae have been killed. The mortality values determined thus are recalculated using the Colby-formula (see sheet 1).

[2] = test system: larvae of the diamondback moth (Plutella xylostella); test: Plutella xylostella - spray test; assay type: in vivo; settings: 48 h, read-out: Efficacy in % after 2 d (mortality)
Experimental: as §1, §2, §3
Solvent: 7 parts by weight of dimethylformamide
Emulsifier: 2 parts by weight of alkylaryl polyglycolether […]
After the specified period of time, the mortality in % is determined. […] The mortality values determined thus are recalculated using the Colby-formula (see sheet 1).

[3] = read-out: Efficacy in % after 2 d (mortality)

Q: Which mortality at 1.2 g/ha [1, 3] does the source give for `CC[S+]([O-])c1c(C#N)nn(-c2c(Cl)cc(C(F)(F)F)cc2Cl)c1N` (centres unmarked) [Ethiprole (II-2), ethiprole] here?
A: 33%

Q: And the mortality at 0.8 g/ha ([1]; in Brassica rapa, foliar, read-out: Efficacy in % after 2 d (mortality))?
A: 50%

Q: How did the mortality at 0.3 g/ha [1, 3] turn out when `N#Cc1nn(-c2c(Cl)cc(C(F)(F)F)cc2Cl)c(N)c1[S+]([O-])C(F)(F)F` (centres unmarked) [Fipronil, fipronil] was run?
A: 0%

Q: And the mortality at 0.125 ppm ([2]; in Brassica oleracea)?
A: 45%

Q: For `Cc1cc(C(F)(C(F)(F)F)C(F)(F)F)ccc1NC(=O)c1cccc(Cl)c1C(=O)NC(C)(C)C#N` [(I-5)], which mortality at 6 g/ha ([1]; 6 g ai/ha, after 2 d, Table A-2, read-out: Efficacy in % after 2 d (mortality)) is on record?
A: 0%

Q: What about the mortality at 12 g/ha ([1]; 12 g ai/ha, after 2 d, Table A-2, read-out: Efficacy in % after 2 d (mortality)) of the same compound?
A: 0%

Q: What about the mortality at 4 g/ha ([1]; foliar, 4 g ai/ha, Chinese cabbage leaf disks sprayed, after 2 d, Table A-1, read-out: Efficacy in % after 2 d (mortality)) of the same compound?
A: 0%

Q: What about the mortality at 0.0625 ppm ([2]; 0.0625 ppm, cabbage leaves sprayed, after 2 d) of the same compound?
A: 0%
